One experiment has as its system soleus (SOL) muscle. The experiment is described as follows: Electrically induced twitch amplitude in slow-fiber skeletal muscle (SOL). The settings on record: for SOL twitch amplitude 30 min-Washing (% of the control): 30 min after washing. Format: cell-based, mice. How it is done: Male mice weighing 22-28 g were sacrificed through cervical dislocation and the extensor digitorium longus (EDL) and soleus (SOL) muscles were dissected in a Ringer-Krebs solution, whose composition is given in Table 9, at room temperature. The muscles were placed in vertical chambers with a capacity of 10 ml, and were fixed by their ends to the stimulation electrode fixation rod and a power transducer (Grass FT03) for registering muscle twitches. The chamber solution was bubbled continuously with a carbogenic mixture (95% O2/5% CO2) and kept at a temperature of 37° C. The muscles were stimulated electrically through a stimulator (Grass S88) at a frequency of 0.2 Hz, at 37° C. After the stabilization of the muscle twitches (±30 minutes) a control record was taken in the absence of the drug, and subsequently rising concentrations (from 10 μM to 200 μM) of the L294 derivatives were added every ten minutes, diluted in DMSO. […] The signals recorded by the transducer were amplified (Cyberamp) and the isometric tension was digitized (Digidata 1322A) and stored on a computer. The screening and analysis of the experiment was handled through the use of the Axoscope 8.0 program. (Zapata-Sudo, 2003).
A measurement of the electrically-induced twitch amplitude was selected to assist the effects of the L294 analogs on the skeletal muscle inotropism. One muscle consisting of fast fibers (extensor digitorium longus-EDL) and the other of slow fibers (soleus-SOL) taken from mice were selected for this purpose. Differences in the timing of the twitches between the fast and slow muscles are shown at the faster recording speed. […] Washing the preparation with Krebs solution caused a partial reversion of the effects induced by the L786.

Experiment [1] concerns left ventricle bundles of a rat heart. The experiment is described as follows: Isometric tension in ventricular bundles. The format is cell-based. The method, then:
(§1) Once the experiments have been carried out, the findings were subject to statistical analyses being expressed in average ±SEM as a percentage of the control value, and graphs were drawn up using the Sigma Plot 5.0 program to represent the data obtained. For the statistical analysis of the effects on the different muscle tissues, the difference was assessed among the concentrations of the same derivative, using the “t” Student test. In order to ascertain the difference among the derivatives, the one-way ANOVA test was used. The differences were considered as significant for p<0.05. The Cl50 was expressed as an average ±SEM of the values obtained for each experiment through non-linear regression based on the y=yo+ae^−bx equation.
(§2) After anesthesia with ethyl ether, male Wistar rats weighing between 240-280 grams were sacrificed through cervical dislocation. The heart was removed rapidly and the papillary muscle and the ventricular bundles were dissected in Tyrode's solution, whose composition is given in Table 2 below, at room temperature. The muscles were placed in vertical chambers with a capacity of 10 mL and fixed at their extremities: the lower portion to a hook located in the stimulation electrode fixation rod and the upper portion connected to a power transducer (Grass FT03) for recording the muscle twitches.
(§3) The muscles were stimulated electrically with supra-maximum voltage (50-60 V) through a stimulator (Grass S88) at a frequency of 1.0 Hz. The signals captured by the transducer were amplified (Cyberamp 380, Axon Instruments) and the isometric tension was digitized (Digidata 1322A, Axon Instruments) and stored on a computer. The screening and analysis of the experiment was handled through the Axoscope 8.0 program (Axon Instruments) (Sudo & cols., 2001). The chamber solution was bubbled continuously with a carbogenic mixture (95% O2/5% CO2) and kept at a temperature of 37° C.
(§4) After the stabilization of the muscle twitches (approximately 30 min) the records were carried out in the absence (control) and presence of rising concentrations (10 to 100 μM) of the different L294 analogs, diluted in DMSO. The records were carried out in pairs (two papillary and two ventricle) thus allowing the control experiments to be carried out in one of the pairs, meaning with rising quantities of DMSO equivalent to those used to dilute the substances. The reversibility of the effect of the substances was investigated at the end of each experiment, noting the recovery of the muscle twitches after bathing the preparation with Tyrode's solution.

The test system of another experiment is rat papillary muscle. The experiment is described as follows: Isometric tension (electrically stimulated twitches) in papillary muscle. Format: cell-based. The settings on record: 10 to 100 μM; not significant. The method, then: as §1, §2, §3, §4

As to `CN(/N=C/c1cccs1)C(=O)c1ccc2c(c1)OCO2` [L785, 1,3-Benzodioxol-5-carboxylic acid, N-methyl-N′-[1-thiophene-2-yl-meth-(E)-ylidene]-hydrazide], in the experiment with soleus (SOL) muscle, the “SOL twitch amplitude 200 μM (% of the control)” value was 28.4±6.6 % of the control and the “SOL twitch amplitude 30 min-Washing (% of the control)” value is reported as 37.9 ± 9.6 % of the control. In addition, the “muscular response in ventricular bundles” value in experiment [1] (concentration not given, alterations not greater than 10%) is given as 96.5±3.8 % of the control. Further, the “maximum alterations to the papillary muscle twitches” value in the experiment on rat papillary muscle is listed as 86.5±4.0 % of the control.

Consider `O=C(c1ccc2c(c1)OCO2)N(Cc1ccccc1)/N=C/c1cccs1` [L786, 1,3-Benzodioxol-5-carboxylic acid, N-benzyl-N′-[1-thiophene-2-yl-meth-(E)-ylidene]-hydrazide], for which the “effect on SOL muscle twitches” value in the experiment with soleus (SOL) muscle (50 μM, result in words) is “reduction in the amplitude and an extension in the duration of the muscle twitches”. Besides, in the experiment with soleus (SOL) muscle, the “SOL twitch amplitude 200 μM (% of the control)” value is recorded as 61.9±5.5 % of the control and the “SOL twitch amplitude 30 min-Washing (% of the control)” value was 77.0 ± 10.3 % of the control. Further, the “muscle twitches / contractility in ventricular bundles” value in experiment [1] (100 μM) was 79.9±10.6 % of the control.

(Values after patent publication US20080275105A1, “Selective Muscle Relaxant and Pharmaceutical Compositions” (UNIVERSIDADE FEDERAL DO RIO DE JANEIROUFRJ, priority 2004, published 2008).)
